Measured values taken from PubChem BioAssay AID606 (Columbia University Molecular Screening Center, 2007).
Calls of active or inactive are those of the source.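 How the source made its calls: active means IC50 under 40 µM in the dose-response test; inactive means IC50 of 40 µM or more, or never dose-tested.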

Biological target: Tyrosine-protein phosphatase non-receptor type 22 (Homo sapiens) (UniProt Q9Y2R2)
Test: inhibition of human PTPN22 tyrosine phosphatase – biochemical, DiFMUP fluorescence, recombinant catalytic domain, 10 µM, primary screen (AID 606)
Conditions: recombinant LYP catalytic domain

Tyrosine-protein phosphatase non-receptor type 22 (Homo sapiens), sequence (Q9Y2R2 whole entry, looked up, the tested form may be a part): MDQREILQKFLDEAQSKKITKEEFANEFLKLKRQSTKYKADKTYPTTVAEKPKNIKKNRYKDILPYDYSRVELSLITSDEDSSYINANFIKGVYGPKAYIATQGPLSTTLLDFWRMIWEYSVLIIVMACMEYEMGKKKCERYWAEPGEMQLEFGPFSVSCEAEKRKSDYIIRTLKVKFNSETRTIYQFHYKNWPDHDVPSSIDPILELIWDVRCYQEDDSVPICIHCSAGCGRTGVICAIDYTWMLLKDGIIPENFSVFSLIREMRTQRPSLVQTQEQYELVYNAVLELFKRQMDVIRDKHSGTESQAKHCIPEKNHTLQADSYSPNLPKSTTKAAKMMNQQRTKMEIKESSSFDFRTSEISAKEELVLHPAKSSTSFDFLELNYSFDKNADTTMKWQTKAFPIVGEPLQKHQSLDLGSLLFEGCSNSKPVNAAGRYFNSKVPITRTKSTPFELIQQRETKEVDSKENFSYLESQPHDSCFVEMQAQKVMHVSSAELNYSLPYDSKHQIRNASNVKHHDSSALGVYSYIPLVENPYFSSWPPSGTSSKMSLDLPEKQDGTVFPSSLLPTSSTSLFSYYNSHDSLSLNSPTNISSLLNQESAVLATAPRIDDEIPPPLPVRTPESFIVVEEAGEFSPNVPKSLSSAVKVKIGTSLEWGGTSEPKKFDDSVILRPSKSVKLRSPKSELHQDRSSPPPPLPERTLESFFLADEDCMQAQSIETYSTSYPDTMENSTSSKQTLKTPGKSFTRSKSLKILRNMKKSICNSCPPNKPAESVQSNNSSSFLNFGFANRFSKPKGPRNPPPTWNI

- IC50: > 40 µM (inactive)
Structure (SMILES): Oc1ccc2ccccc2c1C=NC12CN3CCN(CN(C3)C1)C2
